Data published in patent US20250073255A1, “USE OF FA-TYPE LIPID COMPOUNDS IN PREPARATION OF NUCLEIC ACID DELIVERY REAGENT AND RELATED PRODUCT” (BEIJING BAISHIKANG PHARMACEUTICAL TECHNOLOGY (BSJPHARMA) …, priority 2021, published 2025).

Tested on: C57BL/6 male mice
Assay: In vivo delivery study of lipid nucleic acid mixture (oral gavage, RT-qPCR of PGY-sRNA-26 in tissues)
Parameters: species or system mouse
Settings: for overall delivery efficacy: delivering nucleic acids into each tissue and blood tested: 100 μg lipid:10 nmol PGY-sRNA-26, all tissues and blood tested; for oral delivery of single-stranded sRNA nucleic acids into mouse blood / oral delivery of single-stranded sRNA nucleic acids into mouse brain tissue / oral delivery of single-stranded sRNA nucleic acids into mouse femur / oral delivery of single-stranded sRNA nucleic acids into mouse heart tissue / oral delivery of single-stranded sRNA nucleic acids into mouse intestinal tissue / oral delivery of single-stranded sRNA nucleic acids into mouse kidney tissue / oral delivery of single-stranded sRNA nucleic acids into mouse liver tissue / oral delivery of single-stranded sRNA nucleic acids into mouse lung tissue / oral delivery of single-stranded sRNA nucleic acids into mouse spleen tissue / oral delivery of single-stranded sRNA nucleic acids into mouse stomach tissue / oral delivery of single-stranded sRNA nucleic acids into mouse pancreatic tissue: 100 μg lipid:10 nmol PGY-sRNA-26, sampled after 12 hours; for oral delivery of single-stranded sRNA nucleic acids into mouse heart tissue: vs free uptake group; for oral delivery of single-stranded sRNA nucleic acids into mouse intestinal tissue: intestine; for oral delivery of single-stranded sRNA nucleic acids into mouse pancreatic tissue: pancreas
How it was run: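 Stem-loop RT and SYBR qPCR, normalized to U6, measured PGY-sRNA-26 in blood and organs 12 h after gavage. Dosing was 10 nmol sRNA with 100 μg lipid, pre-mixed and heated 15 min at 90 °C, in 12-h-fasted mice, against saline and free-sRNA groups.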

| Structure (SMILES) | overall delivery efficacy: delivering nucleic acids into each tissue and blood tested | oral delivery of single-stranded sRNA nucleic acids into mouse blood | oral delivery of single-stranded sRNA nucleic acids into mouse brain tissue | oral delivery of single-stranded sRNA nucleic acids into mouse femur | oral delivery of single-stranded sRNA nucleic acids into mouse heart tissue | oral delivery of single-stranded sRNA nucleic acids into mouse intestinal tissue | oral delivery of single-stranded sRNA nucleic acids into mouse kidney tissue | oral delivery of single-stranded sRNA nucleic acids into mouse liver tissue | oral delivery of single-stranded sRNA nucleic acids into mouse lung tissue | oral delivery of single-stranded sRNA nucleic acids into mouse spleen tissue | oral delivery of single-stranded sRNA nucleic acids into mouse stomach tissue | oral delivery of single-stranded sRNA nucleic acids into mouse pancreatic tissue |
| --- | --- | --- | --- | --- | --- | --- | --- | --- | --- | --- | --- | --- |
| CCCCCCCCCCCCCCO [Lipid 635, tetradecan-1-ol] | best delivery efficacy | can effectively orally deliver | can effectively orally deliver | can effectively orally deliver | can effectively orally deliver | can effectively orally deliver | can effectively orally deliver | can effectively orally deliver | can effectively orally deliver | can effectively orally deliver | can effectively orally deliver |  |
| CCCCCCCCCCCCCCCCCCCCCCC(=O)NCCO [Lipid 519, N-(2-hydroxyethyl)tricosanamide] |  |  |  |  | can effectively orally deliver |  | can effectively orally deliver |  | can effectively orally deliver |  | can effectively orally deliver |  |
| C=C(C)CCOC(=O)CCCCCCCCCCCCCCCCCCCCC [Lipid 815, 3-methylbut-3-enyl docosanoate] |  | can effectively orally deliver | can effectively orally deliver | can effectively orally deliver | can effectively orally deliver | can effectively orally deliver | can effectively orally deliver | can effectively orally deliver | can effectively orally deliver | can effectively orally deliver | can effectively orally deliver | can effectively orally deliver |
| CCCCCC/C=C\CCCCCCCC(=O)OCCCCCCCCCCCCCCCCCCCCCC [Lipid 823, docosyl (Z)-hexadec-9-enoate] |  | can effectively orally deliver | can effectively orally deliver | can effectively orally deliver | can effectively orally deliver | can effectively orally deliver | can effectively orally deliver | can effectively orally deliver | can effectively orally deliver | can effectively orally deliver | can effectively orally deliver | can effectively orally deliver |
| CCCCCCCCC(C)=O [Lipid 604, decan-2-one] | best delivery efficacy | can effectively orally deliver | can effectively orally deliver | can effectively orally deliver | can effectively orally deliver | can effectively orally deliver | can effectively orally deliver | can effectively orally deliver | can effectively orally deliver | can effectively orally deliver | can effectively orally deliver |  |
| CC(C)(CC(=O)O)CC(=O)O [Lipid 598, 3,3-dimethylpentanedioic acid] | best delivery efficacy | can effectively orally deliver | can effectively orally deliver | can effectively orally deliver | can effectively orally deliver | can effectively orally deliver | can effectively orally deliver | can effectively orally deliver | can effectively orally deliver | can effectively orally deliver | can effectively orally deliver |  |
| CCCCC/C=C\C/C=C\CCCCCCCC(=O)OCCCCCCCCCCCCCC [Lipid 811, tetradecyl (9Z,12Z)-octadeca-9,12-dienoate] |  | can effectively orally deliver | can effectively orally deliver | can effectively orally deliver | can effectively orally deliver | can effectively orally deliver | can effectively orally deliver | can effectively orally deliver | can effectively orally deliver | can effectively orally deliver | can effectively orally deliver | can effectively orally deliver |
| O=C(O)CCCCCCCCCCCCCCC(=O)O [Lipid 529, hexadecanedioic acid] | best delivery efficacy | can effectively orally deliver | can effectively orally deliver | can effectively orally deliver | can effectively orally deliver | can effectively orally deliver | can effectively orally deliver | can effectively orally deliver | can effectively orally deliver | can effectively orally deliver | can effectively orally deliver |  |
| CCCCCC/C=C\CCCCCCCC(=O)OCCCCCCCCCCCCC [Lipid 813, tridecyl (Z)-hexadec-9-enoate] |  | can effectively orally deliver | can effectively orally deliver | can effectively orally deliver | can effectively orally deliver | can effectively orally deliver | can effectively orally deliver | can effectively orally deliver | can effectively orally deliver | can effectively orally deliver | can effectively orally deliver | can effectively orally deliver |
| NCCCCCC(=O)NCCCCCC(=O)O [Lipid 522, 6-(6-aminohexanoylamino)hexanoic acid] |  | can effectively orally deliver |  |  | can effectively orally deliver | can effectively orally deliver |  |  | can effectively orally deliver | can effectively orally deliver | can effectively orally deliver |  |
